Assay results taken from patent US11208412B2 (DAEGU-GYEONGBUK MEDICAL INNOVATION FOUNDATION, priority 2017, dated 2021).

Key:
Assay in all cases: Kinase selectivity, DiscoverX scanMAX Kinase assay panel (% control)
Format in all cases: binding
[1] = target: T1, kinases of the scanMAX Kinase assay panel (Homo sapiens, UniProt Q96D53); conditions: ADCK4; 1 uM
T1 construct: purchased DiscoverX Co. (contract measurement) scanMAX Kinase assay panel
T1 sequence (Q96D53 1-544): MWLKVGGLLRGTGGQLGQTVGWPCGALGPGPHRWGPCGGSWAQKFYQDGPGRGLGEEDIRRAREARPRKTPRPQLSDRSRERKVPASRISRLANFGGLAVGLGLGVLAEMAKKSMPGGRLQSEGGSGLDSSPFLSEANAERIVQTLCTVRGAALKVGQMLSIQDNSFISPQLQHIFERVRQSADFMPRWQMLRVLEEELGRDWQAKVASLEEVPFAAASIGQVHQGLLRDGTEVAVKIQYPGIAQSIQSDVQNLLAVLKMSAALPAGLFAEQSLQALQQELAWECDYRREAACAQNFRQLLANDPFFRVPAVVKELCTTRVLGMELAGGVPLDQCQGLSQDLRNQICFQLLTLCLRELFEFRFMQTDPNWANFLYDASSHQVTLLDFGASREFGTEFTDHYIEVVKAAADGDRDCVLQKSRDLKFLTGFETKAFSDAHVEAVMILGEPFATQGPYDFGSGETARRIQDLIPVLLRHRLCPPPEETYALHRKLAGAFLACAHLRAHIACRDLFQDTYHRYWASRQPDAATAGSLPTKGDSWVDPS
Outline: (§1)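 Compounds were tested at 1 uM (in DMSO) against each panel kinase. % control was calculated as (compound − positive control)/(negative control − positive control)×100, where the positive control gives 0% and DMSO gives 100%. Activity toward a kinase was called at % control <35%.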

[2] = target: T2, kinases of the scanMAX Kinase assay panel (Homo sapiens, UniProt Q02750); conditions: MEK1; 1 uM
T2 construct: purchased DiscoverX Co. (contract measurement) scanMAX Kinase assay panel
T2 sequence (Q02750 whole entry): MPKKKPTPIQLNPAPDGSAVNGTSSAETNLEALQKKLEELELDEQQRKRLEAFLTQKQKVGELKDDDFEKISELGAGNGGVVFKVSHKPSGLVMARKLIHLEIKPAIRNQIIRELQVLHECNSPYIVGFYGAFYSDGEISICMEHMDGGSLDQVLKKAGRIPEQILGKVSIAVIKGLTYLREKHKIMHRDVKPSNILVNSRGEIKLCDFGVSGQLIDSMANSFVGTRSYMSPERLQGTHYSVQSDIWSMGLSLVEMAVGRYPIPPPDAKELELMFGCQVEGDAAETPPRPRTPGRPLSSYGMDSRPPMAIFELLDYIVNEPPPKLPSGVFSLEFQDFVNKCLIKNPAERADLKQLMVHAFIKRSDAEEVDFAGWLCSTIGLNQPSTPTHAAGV
Outline: as §1

[3] = target: T3, kinases of the scanMAX Kinase assay panel (Homo sapiens, UniProt P07333); conditions: 1 uM
T3 construct: purchased DiscoverX Co. (contract measurement) scanMAX Kinase assay panel
T3 sequence (P07333 20-972): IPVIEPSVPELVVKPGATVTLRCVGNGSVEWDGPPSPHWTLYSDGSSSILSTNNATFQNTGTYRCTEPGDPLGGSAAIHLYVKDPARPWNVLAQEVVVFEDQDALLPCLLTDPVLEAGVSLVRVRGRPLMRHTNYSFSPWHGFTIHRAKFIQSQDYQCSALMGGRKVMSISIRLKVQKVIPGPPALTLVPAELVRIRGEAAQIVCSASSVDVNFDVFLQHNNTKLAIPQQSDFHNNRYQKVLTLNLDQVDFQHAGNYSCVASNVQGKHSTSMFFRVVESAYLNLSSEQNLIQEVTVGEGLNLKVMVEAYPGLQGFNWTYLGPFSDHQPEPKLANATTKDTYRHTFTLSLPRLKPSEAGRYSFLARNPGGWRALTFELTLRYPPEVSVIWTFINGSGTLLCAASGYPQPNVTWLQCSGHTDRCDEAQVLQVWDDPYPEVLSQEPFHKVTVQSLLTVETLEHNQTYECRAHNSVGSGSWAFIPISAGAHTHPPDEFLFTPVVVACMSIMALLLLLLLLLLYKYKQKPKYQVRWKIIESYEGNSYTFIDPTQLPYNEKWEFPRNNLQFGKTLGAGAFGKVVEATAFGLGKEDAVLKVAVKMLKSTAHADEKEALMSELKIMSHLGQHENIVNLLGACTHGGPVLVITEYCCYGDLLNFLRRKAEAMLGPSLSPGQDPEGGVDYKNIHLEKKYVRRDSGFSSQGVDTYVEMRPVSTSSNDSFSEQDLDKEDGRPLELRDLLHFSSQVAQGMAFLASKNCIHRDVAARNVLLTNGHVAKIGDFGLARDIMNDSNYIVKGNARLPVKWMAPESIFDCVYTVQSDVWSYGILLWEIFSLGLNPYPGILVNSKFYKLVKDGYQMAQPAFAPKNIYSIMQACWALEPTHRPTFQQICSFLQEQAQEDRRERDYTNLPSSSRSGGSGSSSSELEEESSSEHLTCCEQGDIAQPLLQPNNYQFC
Outline: as §1

[4] = target: T4, kinases of the scanMAX Kinase assay panel (Homo sapiens, UniProt Q59H18); conditions: kinase TNNI3K; 1 uM in DMSO
T4 construct: purchased DiscoverX Co. (contract measurement) scanMAX Kinase assay panel
T4 sequence (Q59H18 1-835): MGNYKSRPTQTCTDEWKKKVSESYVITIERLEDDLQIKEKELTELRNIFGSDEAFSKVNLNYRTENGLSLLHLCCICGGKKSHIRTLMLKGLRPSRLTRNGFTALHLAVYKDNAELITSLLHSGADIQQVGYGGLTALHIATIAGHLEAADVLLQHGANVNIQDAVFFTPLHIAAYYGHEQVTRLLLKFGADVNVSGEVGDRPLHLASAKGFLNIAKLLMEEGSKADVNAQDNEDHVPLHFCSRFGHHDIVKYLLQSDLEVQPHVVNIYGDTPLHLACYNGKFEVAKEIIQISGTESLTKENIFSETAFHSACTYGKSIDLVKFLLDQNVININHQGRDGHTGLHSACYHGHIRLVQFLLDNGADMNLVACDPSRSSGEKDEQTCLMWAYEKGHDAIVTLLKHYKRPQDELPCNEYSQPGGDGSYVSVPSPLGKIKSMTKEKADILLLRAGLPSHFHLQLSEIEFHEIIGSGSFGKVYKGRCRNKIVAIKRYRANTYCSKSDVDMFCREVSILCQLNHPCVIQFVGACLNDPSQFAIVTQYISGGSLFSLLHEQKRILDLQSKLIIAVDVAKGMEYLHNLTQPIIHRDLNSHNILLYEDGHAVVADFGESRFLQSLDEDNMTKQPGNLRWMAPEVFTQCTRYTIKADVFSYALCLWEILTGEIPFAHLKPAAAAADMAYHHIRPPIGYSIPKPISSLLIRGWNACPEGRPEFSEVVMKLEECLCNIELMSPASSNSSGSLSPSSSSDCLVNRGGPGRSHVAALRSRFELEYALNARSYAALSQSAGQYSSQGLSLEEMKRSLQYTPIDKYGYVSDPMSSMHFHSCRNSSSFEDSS
Outline: as §1

[5] = target: T5, kinases of the scanMAX Kinase assay panel (Homo sapiens, UniProt O94804); conditions: LOK; 1 uM
T5 construct: purchased DiscoverX Co. (contract measurement) scanMAX Kinase assay panel
Outline: as §1

[6] = target: T6, kinases of the scanMAX Kinase assay panel (Homo sapiens, UniProt Q6DT37); conditions: DMPK2; 1 uM
T6 construct: purchased DiscoverX Co. (contract measurement) scanMAX Kinase assay panel
T6 sequence (Q6DT37 whole entry): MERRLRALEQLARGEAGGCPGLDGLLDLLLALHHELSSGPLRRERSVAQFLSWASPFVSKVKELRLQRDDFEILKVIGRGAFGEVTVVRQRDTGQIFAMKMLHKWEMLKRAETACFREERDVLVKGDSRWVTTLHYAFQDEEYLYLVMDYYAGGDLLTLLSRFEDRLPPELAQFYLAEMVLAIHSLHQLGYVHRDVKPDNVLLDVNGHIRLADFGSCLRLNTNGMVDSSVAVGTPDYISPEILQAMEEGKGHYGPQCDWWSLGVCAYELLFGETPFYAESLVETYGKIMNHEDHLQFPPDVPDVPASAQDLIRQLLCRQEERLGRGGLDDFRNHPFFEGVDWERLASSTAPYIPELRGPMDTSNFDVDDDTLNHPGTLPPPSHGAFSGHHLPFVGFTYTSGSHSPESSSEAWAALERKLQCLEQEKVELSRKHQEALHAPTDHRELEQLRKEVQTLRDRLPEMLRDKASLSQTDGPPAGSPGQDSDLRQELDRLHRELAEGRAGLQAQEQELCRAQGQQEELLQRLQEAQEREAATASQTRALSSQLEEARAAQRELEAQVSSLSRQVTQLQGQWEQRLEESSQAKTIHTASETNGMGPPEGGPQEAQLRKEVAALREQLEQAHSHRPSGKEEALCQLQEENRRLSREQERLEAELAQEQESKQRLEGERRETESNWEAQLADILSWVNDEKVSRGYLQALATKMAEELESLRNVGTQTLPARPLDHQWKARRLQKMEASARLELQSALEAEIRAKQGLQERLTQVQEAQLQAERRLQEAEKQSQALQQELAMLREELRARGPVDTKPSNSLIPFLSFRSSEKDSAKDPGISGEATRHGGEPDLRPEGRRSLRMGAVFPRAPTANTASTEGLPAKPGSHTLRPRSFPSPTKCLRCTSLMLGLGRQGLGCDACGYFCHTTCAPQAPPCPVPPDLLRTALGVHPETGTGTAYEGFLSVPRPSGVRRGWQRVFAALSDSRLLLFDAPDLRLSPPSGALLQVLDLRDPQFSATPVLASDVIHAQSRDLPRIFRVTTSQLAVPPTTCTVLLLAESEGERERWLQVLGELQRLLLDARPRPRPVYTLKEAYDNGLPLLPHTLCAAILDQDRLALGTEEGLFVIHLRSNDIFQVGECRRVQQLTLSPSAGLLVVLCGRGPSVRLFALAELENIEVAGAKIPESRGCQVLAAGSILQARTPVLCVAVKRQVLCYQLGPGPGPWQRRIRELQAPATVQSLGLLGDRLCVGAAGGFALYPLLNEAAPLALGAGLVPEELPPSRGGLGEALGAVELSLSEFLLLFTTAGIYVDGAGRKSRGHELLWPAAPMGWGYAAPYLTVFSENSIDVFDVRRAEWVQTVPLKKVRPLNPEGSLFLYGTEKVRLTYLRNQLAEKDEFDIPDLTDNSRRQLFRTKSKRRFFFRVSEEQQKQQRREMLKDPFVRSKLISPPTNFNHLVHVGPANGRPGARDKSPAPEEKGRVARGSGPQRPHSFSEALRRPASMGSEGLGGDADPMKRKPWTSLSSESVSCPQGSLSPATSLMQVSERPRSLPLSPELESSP
Outline: as §1

[7] = target: T7, kinases of the scanMAX Kinase assay panel (Homo sapiens, UniProt P51817); conditions: PRKX; 1 uM
T7 construct: purchased DiscoverX Co. (contract measurement) scanMAX Kinase assay panel
T7 sequence (P51817 1-358): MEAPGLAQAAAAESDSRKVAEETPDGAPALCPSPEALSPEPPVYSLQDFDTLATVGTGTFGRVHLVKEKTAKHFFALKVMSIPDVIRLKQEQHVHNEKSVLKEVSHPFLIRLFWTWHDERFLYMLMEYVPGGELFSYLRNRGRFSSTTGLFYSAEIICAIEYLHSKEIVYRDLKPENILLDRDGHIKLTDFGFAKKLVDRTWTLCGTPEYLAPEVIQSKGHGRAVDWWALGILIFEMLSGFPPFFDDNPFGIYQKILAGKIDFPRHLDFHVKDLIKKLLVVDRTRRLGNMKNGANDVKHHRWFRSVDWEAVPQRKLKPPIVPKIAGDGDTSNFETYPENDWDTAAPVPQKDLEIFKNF
Outline: as §1

[8] = target: T8, kinases of the scanMAX Kinase assay panel (Homo sapiens, UniProt P27448); conditions: MARK3; 1 uM
T8 construct: purchased DiscoverX Co. (contract measurement) scanMAX Kinase assay panel
T8 sequence (P27448 whole entry): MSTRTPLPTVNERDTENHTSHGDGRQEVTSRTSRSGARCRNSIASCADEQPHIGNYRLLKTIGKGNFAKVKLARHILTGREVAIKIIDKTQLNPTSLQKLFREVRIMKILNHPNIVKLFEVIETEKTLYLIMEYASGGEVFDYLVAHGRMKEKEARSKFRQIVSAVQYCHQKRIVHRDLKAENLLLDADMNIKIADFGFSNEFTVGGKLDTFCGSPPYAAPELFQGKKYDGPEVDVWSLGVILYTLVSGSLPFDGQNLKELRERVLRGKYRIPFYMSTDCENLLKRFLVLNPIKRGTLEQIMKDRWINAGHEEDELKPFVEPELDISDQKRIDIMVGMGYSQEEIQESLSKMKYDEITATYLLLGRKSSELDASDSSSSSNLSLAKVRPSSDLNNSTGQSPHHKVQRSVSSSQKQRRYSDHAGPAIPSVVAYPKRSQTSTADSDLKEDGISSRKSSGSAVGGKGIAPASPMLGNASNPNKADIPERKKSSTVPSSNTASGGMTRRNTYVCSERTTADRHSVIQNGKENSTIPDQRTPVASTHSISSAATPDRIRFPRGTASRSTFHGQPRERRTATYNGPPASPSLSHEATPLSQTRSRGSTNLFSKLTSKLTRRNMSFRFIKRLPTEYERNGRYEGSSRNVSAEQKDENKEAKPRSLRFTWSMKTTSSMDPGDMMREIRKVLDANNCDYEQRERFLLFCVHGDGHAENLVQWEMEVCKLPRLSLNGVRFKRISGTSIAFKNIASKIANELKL
Outline: as §1

[9] = target: T9, kinases of the scanMAX Kinase assay panel (Homo sapiens, UniProt P14616); conditions: INSRR; 1 uM
T9 construct: purchased DiscoverX Co. (contract measurement) scanMAX Kinase assay panel
Outline: as §1

[10] = target: T10, kinases of the scanMAX Kinase assay panel (Homo sapiens, UniProt P07949); conditions: kinase RET; 1 uM in DMSO
T10 construct: purchased DiscoverX Co. (contract measurement) scanMAX Kinase assay panel
T10 sequence (P07949 29-1114): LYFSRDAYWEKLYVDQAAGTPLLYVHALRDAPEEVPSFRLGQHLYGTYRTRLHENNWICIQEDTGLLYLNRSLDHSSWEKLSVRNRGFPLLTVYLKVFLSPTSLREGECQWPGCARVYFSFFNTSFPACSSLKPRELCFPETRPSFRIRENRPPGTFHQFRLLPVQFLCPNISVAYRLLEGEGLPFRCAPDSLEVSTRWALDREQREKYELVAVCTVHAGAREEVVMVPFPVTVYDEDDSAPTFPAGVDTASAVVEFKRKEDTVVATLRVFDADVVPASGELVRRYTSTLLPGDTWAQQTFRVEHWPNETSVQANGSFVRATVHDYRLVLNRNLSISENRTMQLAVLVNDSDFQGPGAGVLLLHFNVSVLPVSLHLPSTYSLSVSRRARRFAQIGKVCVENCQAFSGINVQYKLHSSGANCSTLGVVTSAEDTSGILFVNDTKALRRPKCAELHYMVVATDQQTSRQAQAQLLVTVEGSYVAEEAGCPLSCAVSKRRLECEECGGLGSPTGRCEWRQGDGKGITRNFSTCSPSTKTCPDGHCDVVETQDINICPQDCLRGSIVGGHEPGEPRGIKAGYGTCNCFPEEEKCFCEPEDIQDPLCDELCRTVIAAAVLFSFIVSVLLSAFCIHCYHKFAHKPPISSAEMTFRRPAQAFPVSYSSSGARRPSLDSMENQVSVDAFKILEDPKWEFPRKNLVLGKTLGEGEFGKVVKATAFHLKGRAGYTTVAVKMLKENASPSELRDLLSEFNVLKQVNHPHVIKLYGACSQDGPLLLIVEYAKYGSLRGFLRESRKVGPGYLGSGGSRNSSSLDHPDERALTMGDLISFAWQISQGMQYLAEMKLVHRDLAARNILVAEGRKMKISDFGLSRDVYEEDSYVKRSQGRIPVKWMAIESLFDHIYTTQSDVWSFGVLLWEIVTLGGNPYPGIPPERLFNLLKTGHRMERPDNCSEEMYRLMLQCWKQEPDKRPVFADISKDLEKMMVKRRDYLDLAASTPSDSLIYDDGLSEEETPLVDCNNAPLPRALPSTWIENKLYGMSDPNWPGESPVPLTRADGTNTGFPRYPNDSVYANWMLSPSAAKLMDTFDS
Outline: as §1

**Q.** How did the remaining binding at 1 µM [1] turn out when `CNc1nc(Nc2ccc(C(=O)N3CCOCC3)cc2OC)nc2[nH]cc(C#N)c12` [Example 1, 2-((2-methoxy-4-(morpholine-4-carbonyl)phenyl)amino)-4-(methylamino)-7H-pyrrolo[2,3-d]pyrimidine-5-carbonitrile] was run?
**A.** 100%

**Q.** What about the remaining binding at 1 µM [2] of the same compound?
**A.** 89%

**Q.** What about the remaining binding at 1 µM ([3]; CSF1R-autoinhibited) of the same compound?
**A.** 46%

**Q.** And the remaining binding at 1 µM ([3]; CSF1R)?
**A.** 89%

**Q.** And the remaining binding at 1 µM [4]?
**A.** 99%

**Q.** And the remaining binding at 1 µM [5]?
**A.** 95%

**Q.** And the remaining binding at 1 µM [6]?
**A.** 90%

**Q.** What about the remaining binding at 1 µM [7] of the same compound?
**A.** 82%

**Q.** What about the remaining binding at 1 µM [8] of the same compound?
**A.** 100%

**Q.** What about the remaining binding at 1 µM [9] of the same compound?
**A.** 61%

**Q.** What about the remaining binding at 1 µM [10] of the same compound?
**A.** 97%

**Q.** How did the remaining binding at 1 µM [1] turn out when `CC1(Nc2nc(Nc3cnn([C@H]4CCN(C5COC5)C[C@@H]4F)c3Cl)nc3[nH]cc(C#N)c23)CC1` [Example 52, 2-((5-chloro-1-((3S,4S)-3-fluoro-1-(oxetane-3-yl)piperidine-4-yl)-1H-pyrazole-4-yl)amino)((1-methylcyclopropyl)amino)-7H-pyrrolo[2,3-d]pyrimidine-5-carbonitrile] was run?
**A.** 76%

**Q.** What about the remaining binding at 1 µM [2] of the same compound?
**A.** 0.1%

**Q.** What about the remaining binding at 1 µM ([3]; CSF1R-autoinhibited) of the same compound?
**A.** 0%

**Q.** What about the remaining binding at 1 µM ([3]; CSF1R) of the same compound?
**A.** 0%

**Q.** What about the remaining binding at 1 µM [4] of the same compound?
**A.** 93%

**Q.** And the remaining binding at 1 µM [5]?
**A.** 74%

**Q.** What about the remaining binding at 1 µM [6] of the same compound?
**A.** 81%

**Q.** And the remaining binding at 1 µM [7]?
**A.** 89%

**Q.** And the remaining binding at 1 µM [8]?
**A.** 29%

**Q.** And the remaining binding at 1 µM [9]?
**A.** 6.5%

**Q.** And the remaining binding at 1 µM [10]?
**A.** 0%

**Q.** Which remaining binding at 1 µM [1] does the source give for `CCNc1nc(Nc2ccc(C(=O)N3CCC(N4CCOCC4)CC3)cc2OC)nc2[nH]cc(C(F)(F)F)c12` [Example 104, (4-((4-(ethylamino)-5-(trifluoromethyl)-7H-pyrrolo[2,3-d]pyrimidine-2-yl)amino)-3-methoxyphenyl)(4-morpholinopiperidine-1-yl)methanone] here?
**A.** 100%

**Q.** What about the remaining binding at 1 µM [2] of the same compound?
**A.** 86%

**Q.** And the remaining binding at 1 µM ([3]; CSF1R-autoinhibited)?
**A.** 100%

**Q.** What about the remaining binding at 1 µM ([3]; CSF1R) of the same compound?
**A.** 88%

**Q.** What about the remaining binding at 1 µM [4] of the same compound?
**A.** 100%

**Q.** And the remaining binding at 1 µM [5]?
**A.** 100%

**Q.** What about the remaining binding at 1 µM [6] of the same compound?
**A.** 100%

**Q.** And the remaining binding at 1 µM [7]?
**A.** 81%

**Q.** What about the remaining binding at 1 µM [8] of the same compound?
**A.** 86%

**Q.** And the remaining binding at 1 µM [9]?
**A.** 3.2%

**Q.** What about the remaining binding at 1 µM [10] of the same compound?
**A.** 98%
